Experimental data: patent US7078389B2, “Chemically modified oligonucleotide for site-directed mutagenesis” (priority 1993, dated 2006)
Entries after “also recorded” stand apart in the source; their conditions may differ.

Assays:
[1] = tested on: lambda repressor (cI) gene; test: Non-targeted mutagenesis of cI gene in lambda supF DNA; set-up: species or system lambda phage; settings: for cI mutations per 1000 phage: lambda DNA 3 nM, oligonucleotide 3 μM, UVA 1.8 J/cm^2
Description: (§1) Targeted mutagenesis was achieved by incubating pso-AG10 with lambda supF DNA in vitro to form triplex at positions 167 to 176 of the supF gene and bring the tethered psoralen into proximity with the targeted base pair at position 167 as shown in Table 1. The numbers in the table represent the frequency of mutations seen in either the supF gene or the cI gene in the lambda supF genome following the indicated treatment. The lambda DNA at 3 nM was incubated with or without a 1000-fold molar excess of the indicated oligonucleotides (3 μM) as described in FIG. 2.
(§2) UVA (365 nm) irradiation of selected samples was performed at a dose of 1.8 J/cm^2. A radiometer was used to measure lamp output (typical UVA irradiance of 5–7 mW/cm^2 at 320–400 nm). The DNA was packaged in vitro into phage particles, using the method of Hohn, Methods in Enzymology 68:299–309 (1979), and the phage particles were adsorbed to E. coli and grown as individual plaques to allow genetic analyses of the supF and cI genes.
(§3) Photoactivation of the psoralen generated a DNA adduct, and in vitro packaging of the psoralen-AG10. The lambda supF DNA complex allowed growth of the phage in bacteria to fix the adduct into a mutation. The phage particles were grown as individual plaques on a bacterial lawn to detect targeted mutagenesis in the supF gene and to measure the extent of non-targeted mutagenesis by screening for the function of an unrelated gene, the lambda repressor (cI) gene. Mutations in these genes yield colorless plaques among blue ones and clear plaques among turbid ones, respectively.

[2] = tested on: supF gene of the lambda vector; test: Sequence analysis of supF mutants from lambda vector; set-up: species or system E. coli; settings: plus UVA
From the text: FIGS. 2A and 2B show a sequence analysis of targeted mutagenesis in the supF gene by the psoralen-linked triplex-forming oligonucleotide (pso-AG10). In FIG. 2A, mutations produced by pso-AG10 and UVA are indicated above each base pair, with the listed base representing the change from the sequence in the top strand. […] The asterisk indicates the targeted base pair at position 167. DNA sequence data was obtained by automated methods after polymerase chain reaction amplification of the supF genes from lambda phage plaques in accordance with the method of Connell et al., Biotechniques 5:342 (1987). FIG. 2B is a compilation of mutations induced in supF by 8-methoxypsoralen and UVA in mouse L-cells using the lambda supF vector of FIG. 1 or generated using a plasmid shuttle vector in monkey Vero cells in accordance with the method of Bredberg and Nachmansson, Carcinogenesis 8:1923 (1987), to compare the mutations produced in supF by free psoralen with those produced by the triplex forming oligonucleotide AG10.
To obtain direct evidence for targeted mutagenesis, a series of independent mutants produced in the supF gene of the lambda vector by pso-AG10 and UVA were sequenced. […] The A:T base pair at 167 forms a triplet with the 5′ adenine to which the psoralen is tethered in AG10, and so it is the closest base pair to the psoralen. The overwhelming predominance of the T:A to A:T transversion at this site is consistent with the mutagenic action of psoralen, which tends to form adducts at pyrimidines, and especially at thymidines. It should be noted that these mutations are independent and none of the mutations represent siblings because each packaged lambda particle gives rise to a single, separate lambda plaque on the bacterial lawn.

[3] = tested on: supF gene in lambda supF DNA; test: Targeted mutagenesis of supF gene in lambda supF DNA (in vitro packaging, plaques on E. coli); settings: for supF mutations per 1000 phage: lambda DNA 3 nM; for supF mutation frequency: plus UVA 1.8 J/cm^2
Description: as §1, §2, §3

[4] = oligonucleotide 3 μM (1000-fold molar excess), UVA 1.8 J/cm^2

| Substance | cI mutations per 1000 phage [1] | cI mutation frequency ([1]; plus UVA 1.8 J/cm^2) [%] | Share of sequenced supF mutations that are the T:A to A:T transversion at targeted base pair 167 ([2]; 25 mutants) [%] | Position of supF mutations relative to targeted base pair 167 [2] | supF mutations per 1000 phage [3, 4] | supF mutations per 1000 phage ([3]; oligonucleotide 3 μM, no UVA) | supF mutagenesis without UVA ([3]; no UVA) | Difference between supF and cI mutation frequency ([3]; plus UVA) | Specificity of targeted mutagenesis considering target size of cI (765 bp) and supF (184 bp) ([3]; plus UVA) [fold] | supF mutation frequency [3] [%] | Fold lower frequency of supF mutations than pso-AG10 ([3]; plus UVA) [fold] | Mutagenesis relative to background (untreated lambda DNA) ([3]; plus UVA) |
| --- | --- | --- | --- | --- | --- | --- | --- | --- | --- | --- | --- | --- |
| 4′-hydroxymethyl-4,5′,8-trimethylpsoralen-^5′AGGAAGGGGG^3′ (DNA NAGGAAGGGGG; 4'-hydroxymethyl-4,5',8-trimethylpsoralen conjugated at 5' end, further chemistry not given here) [pso-AG10] | 0.024 (28/1,162,000) per 1000 phage | 0.0024 | 56 | All except one of the 25 mutations produced by pso-AG10 is at or near the targeted T:A base pair at position 167; also recorded: almost all were targeted by the triplex-forming oligonucleotide | 2.33 (263/112.872) per 1000 phage | <0.014 (0/69.000) per 1000 phage | No significant mutagenesis | approximately 100 fold | ≤ 500 | 0.233 | – | – |
| pso-^5′GGGGGAAGGA^3′ (DNA NGGGGGAAGGA; psoralen conjugated at 5' end, further chemistry not given here) [pso-GA10, reference compound] | 0.019 (9/483,475) per 1000 phage | – | – | Neither of the two mutations induced by the reverse oligomer, pso-GA10, were found to occur at base pair 167 | 0.004 (2/504.198) per 1000 phage | – | – | 5 fold | – | 0.0004 | 582 | barely above background |
